The values that follow come from patent publication US20240410876A1, “EXTRACELLULAR VESICLE DRUG ANALYSIS FOR REAL-TIME MONITORING OF TARGETED THERAPY” (NATIONAL UNIVERSITY OF SINGAPORE, priority 2021, published 2024).

Values joined by “and” are separate entries in the source; they are usually repeats but may differ in a detail not shown here. Equal entries are not always repeated.

By GI50 is commonly meant the concentration giving 50% growth inhibition. A high value points to less potent growth inhibition.

In one experiment the test system is H3255 cells. Kind of experiment: Anti-proliferation activity (MTS assay). The class given is cell-based. The conditions noted are these: Homo sapiens, NCI-H3255; H3255 lung cancer cells, 72 hours. The procedure: MTS assay. […] Cell viability was assessed using the [3-(4,5-dimethylthiazol-2-yl)-5-(3-carboxymethoxyphenyl)-2-(4-sulfophenyl)-2H-tetrazolium inner salt (MTS) cell proliferation assay (Promega).
On the technique in general: Tetrazolium assays rely on reduction of a dye to a coloured formazan, in cell work by metabolically active cells.

Experiment [1] has as its target T1, EGFR (Homo sapiens, UniProt P00533, L858R).
T1 construct: endogenous in cells; host or cells: H3255 human lung cancer cells
The experiment can be described thus: Live-cell labeling of H3255 cells by click probes (in-gel fluorescence). The class given is cell-based. On the procedure: In-gel fluorescence analysis of cell labeling. Cell pellets were resuspended in Pierce IP lysis buffer (Thermo Scientific) supplemented with protease inhibitor cocktail (Thermo Scientific). After lysis on ice, the lysate was centrifuged at 2000 g, 4° C. for 2 min, and the supernatant was collected and normalized to 1.5 mg/mL with PBS. 40 μL of each sample was first blocked with iodoacetamide (15 mM, Sigma) for 30 min at room temperature in the dark, followed by click reaction with either DBCO-TMR or tetrazine-TMR (25 μM, Click Chemistry Tools) at room temperature for 30 min. The sample was then boiled in LDS sample buffer at 95° C. for 5 min, and resolved by 4-12% SDS-PAGE gel. Finally, the fluorescently labeled proteins were visualized with a ChemiDoc imaging system and subsequently stained with Bio-Safe Coomassie (Bio-Rad).

The test system of experiment [2] is EGFR. The experiment can be described thus: Multiplexed ExoSCOPE: drug occupancy in EVs secreted by drug-treated cells. The class given is cell-based, human. The conditions noted are these: heterogeneous cell mixture, 1 μM, within 24 hours, CD63/EGFR/EpCAM/MUC1 vesicle subpopulations.
Description: ExoSCOPE assay. We developed the ExoSCOPE assay for the direct analysis of both marker composition and drug occupancy in EVs. Samples were diluted 1:1 in PBS before ExoSCOPE analyses. We treated the diluted samples with click probe A3 (tagged with TCO, 100 nM) at 37° C. for 30 min before analysis. […] To measure EV marker composition (for a single marker analysis), we incubated the samples on antibody-functionalized ExoSCOPE sensors (1 μL, 10 min, room temperature), to achieve marker-specific EV capture. As a control experiment, sensors functionalized with IgG isotope control antibodies were used. Relative spectral changes (plasmonic signals) were measured to determine marker-specific EV binding. To measure EV drug occupancy, we used the click probes within sensor-bound vesicles to achieve enzymatic amplification. Specifically, we utilized the probes' click handles (TCO) to recruit tetrazine-conjugated horseradish peroxidase (HRP), which catalyzed in situ, enzymatic conversion of the soluble substrate (3,3′-diaminobenzidine, DAB) to form local, insoluble polymeric products on labeled vesicles; these insoluble deposits acted as optical products to amplify the plasmonic signals. […] Relative spectral changes were measured to determine probe labeling. […]

T1 sequence (P00533 25-1210 L858R): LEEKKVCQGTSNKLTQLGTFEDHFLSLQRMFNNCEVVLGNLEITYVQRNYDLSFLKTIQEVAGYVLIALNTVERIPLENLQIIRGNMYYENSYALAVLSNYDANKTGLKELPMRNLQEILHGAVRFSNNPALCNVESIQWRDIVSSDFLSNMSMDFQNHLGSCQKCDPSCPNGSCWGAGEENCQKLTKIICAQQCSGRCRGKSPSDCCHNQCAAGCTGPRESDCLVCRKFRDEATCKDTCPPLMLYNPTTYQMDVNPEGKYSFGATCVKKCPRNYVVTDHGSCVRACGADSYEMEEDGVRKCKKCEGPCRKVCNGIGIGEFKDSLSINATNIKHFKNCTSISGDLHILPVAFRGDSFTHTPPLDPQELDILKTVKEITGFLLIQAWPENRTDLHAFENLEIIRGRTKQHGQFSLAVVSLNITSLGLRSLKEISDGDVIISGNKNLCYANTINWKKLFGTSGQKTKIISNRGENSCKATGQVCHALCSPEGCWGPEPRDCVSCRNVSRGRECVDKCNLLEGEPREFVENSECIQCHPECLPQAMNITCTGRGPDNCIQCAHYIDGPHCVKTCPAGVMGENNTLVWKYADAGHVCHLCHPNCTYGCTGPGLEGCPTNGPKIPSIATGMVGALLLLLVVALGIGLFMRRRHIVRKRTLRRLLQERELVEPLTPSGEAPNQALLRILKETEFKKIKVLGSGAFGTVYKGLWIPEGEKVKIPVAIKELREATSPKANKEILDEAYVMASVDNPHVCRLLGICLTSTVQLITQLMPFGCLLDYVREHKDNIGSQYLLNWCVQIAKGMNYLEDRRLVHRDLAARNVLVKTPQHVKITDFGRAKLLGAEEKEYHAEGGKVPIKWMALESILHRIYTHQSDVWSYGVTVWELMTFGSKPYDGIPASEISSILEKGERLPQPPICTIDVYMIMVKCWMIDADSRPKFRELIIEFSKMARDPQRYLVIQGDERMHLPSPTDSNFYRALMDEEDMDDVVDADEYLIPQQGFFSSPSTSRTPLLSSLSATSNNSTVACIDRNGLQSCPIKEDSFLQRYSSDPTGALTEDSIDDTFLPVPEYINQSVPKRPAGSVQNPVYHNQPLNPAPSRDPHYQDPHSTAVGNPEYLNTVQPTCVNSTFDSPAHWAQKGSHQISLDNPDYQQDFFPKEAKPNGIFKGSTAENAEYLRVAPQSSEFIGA

`CN(C)C/C=C/C(=O)Nc1cc2c(Nc3ccc(F)c(Cl)c3)ncnc2cc1OCCCNC(=O)CNC(=O)OC1CC/C=C/CCC1` (stereo not drawn) [probe A3, (E)-cyclooct-4-en-1-yl (2-((3-((4-((3-chloro-4-fluorophenyl)amino)-6-((E)-4-(dimethylamino)but-2-enamido)quinazolin-7-yl)oxy)propyl)amino)-2-oxoethyl)carbamate] had a GI50 with H3255 cells of 1.8 nM. At EGFR [1] (100 nM probe, with or without afatinib 1 μM), the “signal-to-noise ratio of EGFR labeling among the click probes” value is on record as “best signal-to-noise ratio”. The “incubation time to maximal labeling” value on EGFR [1] (probe 100 nM, H3255 cells) was found to be 1 h. Also, the “live-cell EGFR labeling efficiency” value on EGFR [1] (probe 100 nM, H3255 cells, 15 min incubation) is > 90% and 90%.

In the case of `C#Cc1cccc(Nc2ncnc3cc(OCCOC)c(OCCOC)cc23)c1` [erlotinib], the “time-dependent change of ξEV” value with EGFR [2] is “increased”.

The compound `CN(C)C/C=C/C(=O)Nc1cc2c(Nc3ccc(F)c(Cl)c3)ncnc2cc1O[C@H]1CCOC1` [afatinib, reference compound] had a concentration for 50% growth inhibition (GI50) with H3255 cells of 0.6 nM.
